Measured values from US5434052A, “Complementation assay for drug screening” (Microgenics Corporation, priority 1993, dated 1995).

B1: TBG: purified TBG from Protus Laboratories, diluted in PBS (protein, UniProt P05543 21-415, looked up)
Thyroxine-binding globulin: ASPEGKVTACHSSQPNATLYKMSSINADFAFNLYRRFTVETPDKNIFFSPVSISAALVMLSFGACCSTQTEIVETLGFNLTDTPMVEIQHGFQHLICSLNFPKKELELQIGNALFIGKHLKPLAKFLNDVKTLYETEVFSTDFSNISAAKQEINSHVEMQTKGKVVGLIQDLKPNTIMVLVNYIHFKAQWANPFDPSKTEDSSSFLIDKTTTVQVPMMHQMEQYYHLVDMELNCTVLQMDYSKNALALFVLPKEGQMESVEAAMSSKTLKKWNRLLQKGWVDLFVPKFSISATYDLGATLLKMGIQHAYSENADFSGLTEDNGLKLSNAAHKAVLHIGEKGTEAAAVPEVELSDQPENTFLHPIIQIDRSFMLLILERSTRSILFLGKVVNPTEA

Tests used:
[1] = biological target: T1, bovine Folate Binding Protein (Bos taurus, UniProt P02702); test: Inhibition of ED14-Folate conjugate with folate binding protein; competition by folic acid sample, β-galactosidase complementation; parameters: dose or concentration left out as unconfirmed; details: folate binding protein diluted approximately 1:2500
T1 construct: purchased Biochemical Inc., Englewood, Colo
T1 sequence (P02702 20-241): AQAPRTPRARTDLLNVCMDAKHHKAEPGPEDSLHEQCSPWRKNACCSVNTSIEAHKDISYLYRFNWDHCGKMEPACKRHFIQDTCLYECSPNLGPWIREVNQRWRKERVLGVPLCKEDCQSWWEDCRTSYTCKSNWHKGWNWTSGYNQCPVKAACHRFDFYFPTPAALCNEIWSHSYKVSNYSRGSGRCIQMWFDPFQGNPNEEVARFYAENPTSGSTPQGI
Procedure: Binding Protein Reagent consists of bovine Folate Binding Protein (Biochemical Inc., Englewood, Colo.) diluted approximately 1:2500 in 150 mM potassium phosphate, 50 mM sodium borate, 1% BSA (B12-Grade BSA, Sigma, St. Louis, Mo.), 1% Lubrol and 20 mM sodium azide, pH 7.0. ED14-Folate Conjugate/Substrate Reagent contains approximately 6.3 nM ED-Folate, 1.0 mg/ml OCNPG (o-chloro-p-nitrophenol galactopyranoside), 100 mM sodium phosphate, 150 mM potassium phosphate, 10 mM ethylene glycol tetraacetic acid, 2.5 mM dithiothreitol, 20 mM sodium azide, 0.05% Tween 20 with 0.05 mM dithiothreitol, pH 7.0. EA Reagent consists of a recombinant protein resembling the carboxyl-terminal end of β-galactosidase in 100 mM sodium phosphate, 150 mM potassium phosphate, 10 mM ethylene glycol tetraacetic acid, 5 mM magnesium acetate, 20 mM sodium azide, 0.05% Tween 20 with 0.05 mM dithiothreitol pH 7.0. EA concentration is approximately 2.2 μM. The assay procedure involves mixing of 300 μl of folic acid sample with 100 μl of binding protein reagent and incubation for 15 min at room temperature. This becomes the pretreated sample. An instrument (clinical chemistry analyzer) is programmed to deliver 30 μl of pretreated sample with 100 μl of ED-Folate reagent for 2 to 5 min at 37° C. This is followed by the addition of 220 μl of EA reagent to the reaction mixture by the instrument and the enzyme rate is read by absorbance change at […]. The following table indicates a typical assay performance.

[2] = biological target: T2, (Homo sapiens, UniProt P05543); test: Inhibition of ED4-T4 conjugate by thyroxin binding globulin, β-galactosidase complementation; details: 18 nM ED4-T4; for Observed Enzyme Rate: 420 nM, 37° C.
T2 construct: purchased Protus Laboratories, South San Francisco, CA
T2 sequence (P05543 21-415): B1 Thyroxine-binding globulin
Procedure: Buffer=20 mM NaPO4 10 mM EGTA, 2 mM MgOAc, 3.6% Glycerol, 5 mM Sucrose, 20 mM NaN3, pH 7.0
Reagent=5U EA/Test or 31.25 U/ml of EA in EA Buffer
Buffer=20 mM NaPO4, 10 mM EGTA, 6.25 mg/ml ONPG, 0.05% Tween/DTT, 20 mM NaN3, pH 7.0
Reagent=18 nM ED4-T4 system concentration or 112.5 nM ED4-T4 in ED reagent buffer
Machine Program Parameters:
The receptor was purified TBG from Protus Laboratories, South San Francisco, CA diluted in PBS.

Molecule | % Inhibition of ED14-Folate Conjugate ([1]; folate in sample 20) [%] | Observed Enzyme Rate ([1]; folate in sample 20) | % Inhibition of ED14-Folate Conjugate ([1]; folate in sample 200) [%] | Observed Enzyme Rate ([1]; folate in sample 200) | % Inhibition ([2]; TBG receptor 18.3 μg/ml) [%] | Observed Enzyme Rate ([2]; TBG receptor 18.3 μg/ml) [mA/min] | % Inhibition ([2]; TBG receptor 55.0 μg/ml) [%] | Observed Enzyme Rate ([2]; TBG receptor 55.0 μg/ml) [mA/min]
Nc1nc2ncc(CNc3ccc(C(=O)N[C@@H](CCC(=O)O)C(=O)O)cc3)nc2c(=O)[nH]1 [Folate, Folic acid] | 18.8 | 290 | 0.0 | 357 | – | – | – | –
B1 | – | – | – | – | 22 | 367 | 68 | 154
